This note sets out measurements from patent US20240116985A1, “STAPLED PEPTIDES AND METHODS THEREOF” (priority 2020, published 2024).

One data set can be described thus: Solubility in PBS. The data set is classed as physicochemical. In a few lines: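 PBS sample ultracentrifuged; supernatant run on HPLC vs. 50 μM peptide in DMSO standard. Solubility = (PBS peak area / DMSO peak area) × 50 uM.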
The next data set can be described thus: CHI Log D procedure. It is filed as physicochemical. Conditions: for chromatographic logD: pH 7.4, CHI Log D; for CHI Log D: pH 7.4.
Data set [1] addresses T1, full-length B-Catenin (Uniprot ID P35222) (Homo sapiens, UniProt P35222).
T1 construct: 65 nM full-length B-Catenin (Uniprot ID P35222)
T1 sequence (P35222 1-781): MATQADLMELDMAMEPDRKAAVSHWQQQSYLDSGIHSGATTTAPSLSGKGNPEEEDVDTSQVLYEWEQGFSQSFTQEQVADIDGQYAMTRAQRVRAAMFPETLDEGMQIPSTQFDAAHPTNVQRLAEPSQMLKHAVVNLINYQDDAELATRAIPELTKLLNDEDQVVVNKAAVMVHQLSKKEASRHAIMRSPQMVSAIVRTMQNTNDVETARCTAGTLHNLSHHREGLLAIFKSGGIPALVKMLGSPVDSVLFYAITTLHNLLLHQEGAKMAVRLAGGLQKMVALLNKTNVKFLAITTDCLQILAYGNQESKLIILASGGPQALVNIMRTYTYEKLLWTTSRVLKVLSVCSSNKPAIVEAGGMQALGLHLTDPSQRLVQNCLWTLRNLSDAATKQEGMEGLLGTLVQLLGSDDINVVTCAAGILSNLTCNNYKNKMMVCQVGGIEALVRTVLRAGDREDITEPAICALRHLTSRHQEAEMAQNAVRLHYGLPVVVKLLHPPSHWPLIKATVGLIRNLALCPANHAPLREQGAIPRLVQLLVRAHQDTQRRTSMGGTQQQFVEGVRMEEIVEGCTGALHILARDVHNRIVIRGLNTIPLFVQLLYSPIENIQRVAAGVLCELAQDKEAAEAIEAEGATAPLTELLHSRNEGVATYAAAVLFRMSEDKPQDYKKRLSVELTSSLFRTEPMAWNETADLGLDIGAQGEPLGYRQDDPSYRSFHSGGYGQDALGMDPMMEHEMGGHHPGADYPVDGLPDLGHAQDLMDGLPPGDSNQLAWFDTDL
Kind of data set: Alphascreen binding assay (beta-catenin / biotin-TCF4 10-53). In outline:
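AlphaScreen (Ni-chelate beads) competition in 50 mM Tris pH 8.0, 250 mM NaCl with detergents and 0.1% BSA. Peptide titrated 10 uM–5 nM against 65 nM human β-catenin bound to 10 nM biotinylated TCF4 10-53, 15 min then 60 min with beads, both at 20 °C; 1:1 Hill-slope fit.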
(In general: In Alpha technology, singlet oxygen from a donor bead excites a nearby acceptor bead.)

The target in data set [2] is T2, full-length beta-Catenin (Uniprot ID P35222) (Homo sapiens, UniProt P35222).
T2 construct: 10 nM full-length beta-Catenin (Uniprot ID P35222)
T2 sequence (P35222 1-781): T1 sequence (P35222 1-781)
Description: Fluorescence polarization IC50 (beta-catenin / 5FAM-TCF4 10-53 competition). It is filed as binding.

The mark [3] stands for this setting: Table E2-1, read-out: beta-Catenin FP IC50.
The mark [4] stands for this setting: fluorescence polarization, beta-catenin, read-out: FP EC50.

Values after ≈ are worked out from the molar mass of the structure shown. Like-named read-outs stand apart in the source and are kept apart here.

By Solubility is commonly meant the concentration that dissolves in the medium under given conditions. A low value points to little dissolved substance. Usually chromatographic logD stands for a lipophilicity value derived from retention on a column. High values mean a more lipophilic compound, low ones a more hydrophilic compound. The term EC50 denotes the concentration at which the effect is half-maximal. A low value points to an effect from little substance. Consider `CC(=O)N1CCC[C@]12CC=CCCCC1(CCCC=CCCCCCC[C@@](C)(C(=O)N[C@@H](Cc3ccccc3)C(=O)N[C@@H](Cc3c[nH]c4ccccc34)C(=O)N[C@@H](CCC(N)=O)C(N)=O)NC(=O)[C@H](C(C)C)NC(=O)[C@H](Cc3ccccc3)NC(=O)[C@H](C)NC(=O)[C@H](C)NC(=O)[C@H](CC(=O)O)NC(=O)[C@H](CC(=O)O)NC1=O)NC(=O)[C@H](C)NC(=O)[C@H](CC(=O)O)NC2=O` (stereo partly drawn) [I-52, Ac-PL3-Asp-Ala-B5-Asp-Asp-Ala-Ala-Phe-Val-S8-Phe-Trp-Gln-NH2], for which, in “Solubility in PBS”, the “Solubility” value stood at 50 µM (≈ 89.1 µg/mL). This molecule also registered a chromatographic logD in “CHI Log D procedure” of 1.93. In addition, the EC50 in data set [1] amounted to 158 nM. The IC50 in data set [2] (setting [3]) was found to be 3200 nM.

Turning to `CC[C@H](C)[C@H](NC(=O)[C@H](CC(=O)O)NC(=O)[C@H](C)NC(C)=O)C(=O)N[C@]1(C)CCN(C)C(=O)OCC=CCCCCC[C@@](C)(C(=O)N[C@@H](Cc2ccccc2)C(=O)N[C@@H](Cc2c[nH]c3ccccc23)C(=O)N[C@@H](Cc2c[nH]cn2)C(N)=O)NC(=O)[C@H](CCC(N)=O)NC(=O)[C@H](Cc2ccccc2)NC(=O)[C@H](C)NC(=O)[C@H](C)NC(=O)[C@H](CCC(=O)O)NC(=O)[C@H](CC(=O)O)NC1=O` [I-67, Ac-Ala-Asp-Ile-RdN-Asp-Glu-Ala-Ala-Phe-Gln-S7-Phe-Trp-His-NH2], in the data set “Solubility in PBS”, the “Solubility” value worked out at 50 µM (≈ 92.1 µg/mL). Moreover, in “CHI Log D procedure”, the “CHI Log D” value is given as 1.24. In data set [1], this molecule gave an EC50 of 154 nM. Further, the IC50 in data set [2] (setting [3]) and in data set [2] (setting [4]) was 1230 nM each time.

`CCN(CC(=O)O)C[C@@H]1NC(=O)[C@H](CC(=O)O)NC(=O)C2(CCCC=CCCCCCC[C@@](C)(C(=O)N[C@@H](Cc3ccccc3)C(=O)N[C@@H](Cc3c[nH]c4ccccc34)C(=O)N[C@@H](CCC(N)=O)C(N)=O)NC(=O)[C@H](C(C)C)NC(=O)[C@H](Cc3ccccc3)NC(=O)[C@H](C)NC(=O)[C@H](C)NC1=O)CCCC=CC[C@]1(CCCN1C(C)=O)C(=O)N[C@@H](CC(=O)O)C(=O)N[C@@H](C)C(=O)N2` (stereo partly drawn) [I-173, Ac-PL3-Asp-Ala-B5-Asp-EtGA-Ala-Ala-Phe-Val-S8-Phe-Trp-Gln-NH2]: in the data set “Solubility in PBS”, the “Solubility” value was 26 µM (≈ 47.8 µg/mL). Also, the “CHI Log D” value in the data set “CHI Log D procedure” is 3.076. For the same molecule, in data set [1], the response was half-maximal at 105 nM (EC50). For the same molecule, the IC50 in data set [2] (setting [3]) and in data set [2] (setting [4]) was 3120 nM throughout.

For `CC(=O)N1CCC[C@]12CC=CCCCC1(CCCC=CCCCCCC[C@@](C)(C(=O)N[C@@H](Cc3ccccc3)C(=O)N[C@@H](Cc3c[nH]c4ccccc34)C(=O)N[C@@H](CCC(N)=O)C(N)=O)NC(=O)[C@H](C(C)C)NC(=O)[C@H](Cc3ccccc3)NC(=O)[C@H](C)NC(=O)[C@H](C)NC(=O)[C@H](Cc3ccc(O)cc3)NC(=O)[C@H](CC(=O)O)NC1=O)NC(=O)[C@H](C)NC(=O)[C@H](CC(=O)O)NC2=O` (stereo partly drawn) [I-274, Ac-PL3-Asp-Ala-B5-Asp-Tyr-Ala-Ala-Phe-Val-S8-Phe-Trp-Gln-NH2], the “Solubility” value in the data set “Solubility in PBS” came to 10 µM (≈ 18.3 µg/mL). In the data set “CHI Log D procedure”, the chromatographic logD came out at 2.62. Also, in data set [1], the EC50 was 2350 nM.

In the case of `CC(=O)N1CCC[C@]12CC=CCCCC1(CCCC=CCCCCCC[C@@](C)(C(=O)N[C@@H](Cc3ccc4ccccc4c3)C(=O)N[C@@H](Cc3c[nH]c4ccccc34)C(=O)N[C@@H](CCC(N)=O)C(N)=O)NC(=O)[C@H](C(C)C)NC(=O)[C@H](Cc3ccccc3)NC(=O)[C@H](C)NC(=O)[C@H](C)NC(=O)[C@H](CC(=O)O)NC(=O)[C@H](CC(=O)O)NC1=O)NC(=O)[C@H](C)NC(=O)[C@H](CC(=O)O)NC2=O` (stereo partly drawn) [I-277, Ac-PL3-Asp-Ala-B5-Asp-Asp-Ala-Ala-Phe-Val-S8-2NapA-Trp-Gln-NH2], the “Solubility” value in “Solubility in PBS” worked out at 45 µM (≈ 82.4 µg/mL). For the same molecule, the “CHI Log D” value in the data set “CHI Log D procedure” is reported as 2.186. In addition, the EC50 in data set [1] was 6800 nM.

Consider `CC(=O)N1CCC[C@]12CC=CCCCC1(CCCC=CCCCCCC[C@@](C)(C(=O)N[C@@H](Cc3ccccc3)C(=O)N[C@@H](Cc3c[nH]c4ccccc34)C(=O)N[C@@H](CCC(N)=O)C(N)=O)NC(=O)[C@H](C)NC(=O)[C@H](Cc3ccccc3)NC(=O)[C@H](C)NC(=O)[C@H](C)NC(=O)[C@H](CC(=O)O)NC(=O)[C@H](CC(=O)O)NC1=O)NC(=O)[C@H](C)NC(=O)[C@H](CC(=O)O)NC2=O` (stereo partly drawn) [I-288, Ac-PL3-Asp-Ala-B5-Asp-Asp-Ala-Ala-Phe-Ala-S8-Phe-Trp-Gln-NH2], for which, in “Solubility in PBS”, the “Solubility” value amounted to 32 µM (≈ 56.1 µg/mL). Moreover, in “CHI Log D procedure”, the “CHI Log D” value came out at 1.926. For the same molecule, a half-maximal response in data set [1] (EC50) required 74 nM. The IC50 in data set [2] (setting [3]) and in data set [2] (setting [4]) was 1310 nM each time.

As to `CC(=O)N1CCC[C@]12CC=CCCCC1(CCCC=CCCCCCC[C@@](C)(C(=O)N[C@@H](Cc3ccccc3)C(=O)N[C@@H](Cc3c[nH]c4ccccc34)C(=O)N[C@@H](CCC(N)=O)C(N)=O)NC(=O)[C@H](C(C)C)NC(=O)[C@H](C)NC(=O)[C@H](C)NC(=O)[C@H](C)NC(=O)[C@H](CC(=O)O)NC(=O)[C@H](CC(=O)O)NC1=O)NC(=O)[C@H](C)NC(=O)[C@H](CC(=O)O)NC2=O` (stereo partly drawn) [I-353, Ac-PL3-Asp-Ala-B5-Asp-Asp-Ala-Ala-Ala-Val-S8-Phe-Trp-Gln-NH2], in “Solubility in PBS”, the “Solubility” value is 45 µM (≈ 76.7 µg/mL). In the data set “CHI Log D procedure”, the “CHI Log D” value was determined as 1.916. The molecule further yielded an EC50 in data set [1] of 9290 nM.

Consider `CC(=O)N1CCC[C@]12CC=CCCCC1(CCCC=CCCCCCC[C@@](C)(C(=O)N[C@@H](Cc3ccccc3)C(=O)N[C@@H](Cc3c[nH]c4ccccc34)C(=O)N[C@@H](CCC(N)=O)C(N)=O)NC(=O)[C@H](C(C)C)NC(=O)[C@H](C)NC(=O)[C@H](C)NC(=O)[C@H](C)NC(=O)[C@H](CC(=O)O)NC(=O)[C@H](CC(=O)O)NC1=O)NC(=O)[C@H](C)NC(=O)[C@H](CC(=O)O)NC2=O` (stereo partly drawn) [I-354, Ac-PL3-Asp-Ala-B5-Asp-Asp-Ala-Ala-Ala-Val-S8-Phe-Trp-Gln-NH2], for which the “Solubility” value in the data set “Solubility in PBS” came out at 50 µM (≈ 85.2 µg/mL). Moreover, the “CHI Log D” value in “CHI Log D procedure” worked out at 1.947. The molecule further registered an EC50 in data set [1] of 2130 nM.

`CC(=O)N1CCC[C@]12CC=CCCCC1(CCCC=CCCCCCC[C@@](C)(C(=O)N[C@@H](C)C(=O)N[C@@H](Cc3c[nH]c4ccccc34)C(=O)N[C@@H](CCC(N)=O)C(N)=O)NC(=O)[C@H](C(C)C)NC(=O)[C@H](Cc3ccccc3)NC(=O)[C@H](C)NC(=O)[C@H](C)NC(=O)[C@H](CC(=O)O)NC(=O)[C@H](CC(=O)O)NC1=O)NC(=O)[C@H](C)NC(=O)[C@H](CC(=O)O)NC2=O` (stereo partly drawn) [I-356, Ac-PL3-Asp-Ala-B5-Asp-Asp-Ala-Ala-Phe-Val-S8-Ala-Trp-Gln-NH2]: the “Solubility” value in “Solubility in PBS” amounted to 50 µM (≈ 85.2 µg/mL). The “CHI Log D” value in “CHI Log D procedure” was determined as 1.619. This molecule also returned an EC50 in data set [1] of 8200 nM.
